# Reference: patent publication US5786344A, “Camptothecin drug combinations and methods with reduced side effects” (priority 1995, dated 1998)
# Values joined by “and” are separate entries in the source; they are usually repeats but may differ in a detail not shown here. Identical values can stand only once. “Also recorded” adds a separate entry of the source. Like-named read-outs stand apart in the source and are kept apart here.
# Legend:
# DNA topoisomerase 1 = details: cited from earlier work
# [1] = cited from earlier work
# tumors = details: cited from earlier work
# [2] = gastrointestinal tract or solution; cited from earlier work
# [3] = system: O . volvulus microfilaria; details: cited from earlier work
# p-glycoprotein [4] = details: mouse, in vivo; cited from earlier work
# [5] = cited from earlier work; remark: listed apart in the source
# glucuronosyltransferase = details: cited from earlier work
# p-glycoprotein [6] = details: cited from earlier work
# p-glycoprotein [7] = details: cited from earlier work; remark: listed apart in the source
# [8] = system: multi-drug resistance (MDR) P388 cells; details: cited from earlier work
# p-glycoprotein [9] = molecular target: T1, p-glycoprotein (Homo sapiens, UniProt P08183); experiment: in vitro; assay type: binding
# T1 construct: membrane vesicles from the multidrug resistant breast tumor cell line; endogenous in cells; host or cells: MCF-7/Adr (multidrug resistant human breast cancer cell line), membrane vesicles
# T1 sequence (P08183 whole entry): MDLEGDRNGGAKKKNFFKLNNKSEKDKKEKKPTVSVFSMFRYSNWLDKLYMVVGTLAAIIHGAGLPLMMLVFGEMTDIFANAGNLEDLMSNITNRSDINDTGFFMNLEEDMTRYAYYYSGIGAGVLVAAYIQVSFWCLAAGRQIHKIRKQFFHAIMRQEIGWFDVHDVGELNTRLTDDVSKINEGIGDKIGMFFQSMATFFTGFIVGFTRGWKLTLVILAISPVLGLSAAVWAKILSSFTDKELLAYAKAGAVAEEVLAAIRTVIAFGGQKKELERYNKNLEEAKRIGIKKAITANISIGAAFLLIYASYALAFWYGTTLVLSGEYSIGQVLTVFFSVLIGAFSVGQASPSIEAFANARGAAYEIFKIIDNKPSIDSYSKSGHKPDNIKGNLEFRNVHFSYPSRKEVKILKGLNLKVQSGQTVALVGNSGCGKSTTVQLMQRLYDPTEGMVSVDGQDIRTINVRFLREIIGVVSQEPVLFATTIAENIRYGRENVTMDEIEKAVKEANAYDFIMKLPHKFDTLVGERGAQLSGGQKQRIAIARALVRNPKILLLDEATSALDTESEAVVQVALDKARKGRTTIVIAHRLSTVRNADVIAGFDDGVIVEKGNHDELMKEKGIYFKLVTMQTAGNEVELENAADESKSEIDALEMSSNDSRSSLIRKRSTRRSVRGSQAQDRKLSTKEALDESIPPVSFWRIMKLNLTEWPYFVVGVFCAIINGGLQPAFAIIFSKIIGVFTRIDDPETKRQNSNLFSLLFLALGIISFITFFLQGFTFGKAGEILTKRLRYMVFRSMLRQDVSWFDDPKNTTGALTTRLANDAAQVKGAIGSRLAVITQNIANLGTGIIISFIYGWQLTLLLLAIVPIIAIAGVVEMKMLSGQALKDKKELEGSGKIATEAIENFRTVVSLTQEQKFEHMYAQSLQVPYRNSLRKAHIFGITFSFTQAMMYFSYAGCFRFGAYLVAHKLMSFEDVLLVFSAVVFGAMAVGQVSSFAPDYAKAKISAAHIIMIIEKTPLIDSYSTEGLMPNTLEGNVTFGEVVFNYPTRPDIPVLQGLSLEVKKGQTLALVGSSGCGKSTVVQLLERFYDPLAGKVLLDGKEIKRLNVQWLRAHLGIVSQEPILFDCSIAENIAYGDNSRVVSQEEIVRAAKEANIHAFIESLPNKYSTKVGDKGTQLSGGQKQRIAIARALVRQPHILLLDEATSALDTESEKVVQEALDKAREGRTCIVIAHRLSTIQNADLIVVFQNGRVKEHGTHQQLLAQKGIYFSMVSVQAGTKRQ
# Source text: FIG. 5. […]. Membrane vesicles from the multidrug resistant human breast cancer tumor cell line […] were used. […].
# [10] = cited from earlier work; remark: listed apart in the source
# [11] = animal studies; cited from earlier work
# [12] = nude mice, accumulation in the intestine; cited from earlier work
# [13] = Phase I pharmacokinetics of CPT-11, SN-38 and SN-38G in plasma/urine after 90 min iv infusion
# Procedure: All patients met the standard laboratory criteria including criteria for adequate organ function. Informed, written consent was obtained from all patients prior to their first dose of CPT-11. The drug was given in 500 cc normal saline by intravenous infusion over 90 minutes on a weekly basis for four doses in a sixweek cycle. […] A second cycle was given with the same dose and schedule used during cycle 1. […] Patients who experienced dose limiting neutropenia were eligible to receive G-CSF at 5 μg/kg/day according to the criteria defined below.
# To determine drug and metabolite levels, heparinized blood samples obtained on the first cycle of therapy, were centrifuged and the plasma was stored at -70° C. until analysis. CPT (camptothecin, 1 μg/ml, obtained from the National Cancer Institute, Bethesda, Md.) was used as an internal standard. One hundred μl of plasma was extracted with 2 ml of methanol, centrifuged at 2500×g for 10 min and the supernatant was evaporated to dryness. Reconstitution was done with 200 μl of methanol containing 0.1% 10M HCL (pH~2.0). For the estimation of SN-38G, plasma samples were extracted as described above. Prior to reconstitution, the samples were incubated with 1000 U of glucuronidase (Sigma Chemical Co., St. Louis, Mo.) for 2 hours at 37° C.
# Analysis was done using a C18 column (μBondapak, 10 μm, 3.9×300 mm; Waters Associates, Milford, Mass.) preceded by a Novapak C18 guard column. […] Detection was monitored by a Hitachi F1050 Fluorescence detector (Hitachi Instruments Inc., Naperville, Ill.) with a λex at 375 nm and λem at 566 nm. […] SN-38G concentrations were determined as the increase in SN-38 concentrations following incubation with glucuronidase.
# The plasma concentration-time data of CPT-11, SN-38 and SN-38G were analyzed by non-compartmental analysis using PCNONLIN (SCI, Lexington, Ky.). The area under the plasma concentration-time curve (AUC) from time zero (predose) to the time of the last quantifiable concentration (AUCt) was calculated by the trapezoidal rule. The AUC extrapolated to time infinity (AUCt →.infin.) was estimated by dividing the last quantifiable concentration by the terminal rate constant obtained by the log-linear regression of the terminal elimination phase. The AUC was the summation of AUCt and AUCt→.infin.. Clearance (CL) was estimated as the ratio of the dose and AUC.
# The present study employed this principle to obtain an estimate of SN-38 excreted in the bile. Since glucuronidation is the major pathway of elimination of SN-38, the fraction of SN-38 not conjugated would be primarily excreted in the bile. The net biliary concentration of SN-38 would then be a resultant of its formation and elimination. This concentration was expressed as the "biliary ratio" which was the ratio of AUC of SN-38 to SN-38G. To control for individual variability in the amount of available drug, the ratio was multiplied by the AUC of CPT-11 to obtain a "biliary index" of SN-38.
# The nonparametric Mann-Whitney test was employed to test for differences in pharmacokinetic outcomes between two patient groups, defined by the worst severity of diarrhea experienced in the first two cycles of CPT-11 treatment. Statistical tests were performed in the Number Cruncher Statistical System (Dr. Jerry Hintz, Kaysville, Utah). A two-sided significance level of less than or equal to 0.05 was considered statistically significant.
# p-glycoprotein [14] = details: rat, in vivo
# Procedure: Animal protocol: Female Wistar rats (~200 gm) having a permanent catheter installed in the right jugular vein were obtained from Charles River Breeding Laboratories (Wilmington, Mass.).
# The catheter was flushed with 500 μl of physiologic saline after each drug administration.
# After each sample the catheter was flushed with an equal volume of physiologic saline. The samples were immediately centrifuged at 2500×g for 10 minutes and the plasma obtained was stored at -70° C. until analysis.
# Data Analysis: The plasma concentration-time profile of the control and pretreated groups of rats were analyzed using non-compartmental methods (PCNONLIN, SCI, Lexington, Ky.). […] The nonparametric Mann-Whitney test was used to test for differences in AUC between the control and pretreated groups.
# p-glycoprotein [15] = details: cited from earlier work; remark: listed apart in the source
# p-glycoprotein [16] = details: cited from earlier work; remark: listed apart in the source
# [17] = system: breast, ovarian, non-small cell lung, colorectal, gastric and renal cell carcinomas; details: in vitro; cited from earlier work
smiles,measurement,setting,value
CC[C@@]1(O)C(=O)OCc2c1cc1n(c2=O)Cc2cc3ccccc3nc2-1 [Camptothecin],concentration producing nicks in the DNA,DNA topoisomerase 1,about 0.5 μM
same,dose-limiting toxicity in early clinical trials,[1]; sodium salt,severe dose-limiting hemorrhagic cystitis and unpredictable myelosuppression
same,antitumor activity reduction,tumors; sodium salt vs closed lactone,about 10 fold
"O.O=P1(N(CCCl)CCCl)NCCCO1 (stereo not shown) [Cyclophosphamide, 2H-1,3,2-Oxazaphosphorin-2-amine, N,N-bis(2-chloroethyl)tetrahydro-, 2-oxide, monohydrate]",stability,[2],stable in the gastrointestinal tract
CC[C@H](C)[C@H]1O[C@]2(CC[C@@H]1C)C[C@@H]1C[C@@H](C/C=C(\C)[C@@H](O[C@H]3C[C@H](OC)[C@@H](O[C@H]4C[C@H](OC)[C@@H](O)[C@H](C)O4)[C@H](C)O3)[C@@H](C)/C=C/C=C3\CO[C@@H]4[C@H](O)C(C)=C[C@@H](C(=O)O1)[C@]34O)O2 [Ivermectin],cure of strongyloidiasis,[3]; single dose,can cure human strongyloidiasis
same,reduction of microfilaria in skin and ocular tissues,[3]; single oral dose 0.15 to 0.20 mg/kg,rapid and marked reduction
same,sensitivity of p-glycoprotein-disrupted mice,p-glycoprotein [4],increased sensitivity
same,time to peak plasma concentration,[5]; oral,≤ 4 h
same,half-life,[5]; plasma or terminal half-life,about 10 hours
"Cc1c(-c2cnccn2)ssc1=S [Oltipraz, 4-methyl-5(2-pyrazinyl)-3H-1,2-dithiole-3-thione]",induction of phase II enzymes / glucuronidation,glucuronosyltransferase,inducer of GST and UDP-glucuronosyltransferase
C/C=C/C[C@@H](C)C(=O)[C@H]1C(=O)N[C@@H](C(C)C)C(=O)N(C)CC(=O)N(C)[C@@H](CC(C)C)C(=O)N[C@@H](C(C)C)C(=O)N(C)[C@@H](CC(C)C)C(=O)N[C@@H](C)C(=O)N[C@H](C)C(=O)N(C)[C@@H](CC(C)C)C(=O)N(C)[C@@H](CC(C)C)C(=O)N(C)[C@@H](C(C)C)C(=O)N1C [SDZ PSC 833],inhibition of / interaction with p-glycoprotein,p-glycoprotein [6],inhibited p-glycoprotein; also recorded: effective inhibitor; also recorded: effective at inhibiting p-glycoprotein
same,persistence of p-glycoprotein inhibition,p-glycoprotein [6]; single pulse exposure,still exhibiting inhibition of p-glycoprotein function even two days after a single pulse exposure
same,p-glycoprotein inhibition relative to comparator,"p-glycoprotein [6]; vs verapamil, cyclosporine A, progesterone or anthracycline analogues",more effective than cyclosporine A; also recorded: stronger inhibitors than verapamil
same,effect of acidic extracellular conditions on inhibitory activity,p-glycoprotein [7]; acidic pH,not affected by acidic extracellular conditions
same,inhibition of vinblastine transport,p-glycoprotein [7],the most effective inhibitor
same,lowest inhibitory concentration,p-glycoprotein [7],10 ng/ml and 9 nM
same,activity relative to cyclosporine A in restoring drug sensitivity,[8],at least one order of magnitude more active than cyclosporine A
"CCc1c2c(nc3ccc(O)cc13)-c1cc3c(c(=O)n1C2)COC(=O)[C@]3(O)CC [SN-38, 7-ethyl-10-hydroxy-camptothecin]",substrate of p-glycoprotein,p-glycoprotein [9],substrates of p-glycoprotein
same,inhibition at 100 µM,"p-glycoprotein [9]; human, mcf-7/adr membrane vesicles",60%
same,biliary radioactivity excreted over 24 h as,"[10]; rat, in vivo",9%
same,route of excretion,[11],excreted primarily into bile
same,cause of diarrhea,[12],responsible for the diarrhea
same,potency relative to the parent drug CPT-11,tumors; in vivo,600-1000 times
same,terminal half-life of closed ring forms,"[5]; human, in vivo",7.6 to 8.8 h
same,increase in AUC SN-38 from secondary peak,[13]; in vivo,~12%
same,increase of AUC from 100 to 175 mg/m^2,[13]; in vivo,3.7 fold
same,interpatient variability of AUC (percent coefficient of variation),[13]; in vivo,2-44%
CCc1c2c(nc3ccc(O[C@@H]4O[C@H](C(=O)O)[C@@H](O)[C@H](O)[C@H]4O)cc13)-c1cc3c(c(=O)n1C2)COC(=O)[C@]3(O)CC [SN-38G],biliary radioactivity excreted over 24 h as,"[10]; rats, 24 h",22%
same,Overall Increase in AUC SN-38G,p-glycoprotein [14],1.93 fold
same,increase of AUC from 100 to 175 mg/m^2,[13]; 1.75 fold dose range,2.7 fold
same,"urinary estimates of SN-38G, fold lower in patients with grade 3-4 diarrhea (average)",[13]; grade 3-4 diarrhea,2.5 fold
same,increase in AUC between 145 and 175 mg/m^2,[13]; in vivo,no increase
C=C[C@H]1C[N@@]2CC[C@H]1C[C@@H]2[C@@H](O)c1ccnc2ccc(OC)cc12 [quinidine],inhibition of / interaction with p-glycoprotein,p-glycoprotein [6],binds to p-glycoprotein and inhibits photo-labeling
same,inhibition of amphiphilic cation transport,p-glycoprotein [15],inhibit
same,inhibition of digoxin transport,p-glycoprotein [16],inhibited digoxin transport
same,oral absorption,"[5]; human, in vivo",90%
same,elimination by hepatic biotransformation,"[5]; human, liver",50-60%
"COC(=O)[C@H]1[C@H]2C[C@@H]3c4[nH]c5cc(OC)ccc5c4CCN3C[C@H]2C[C@@H](OC(=O)c2cc(OC)c(OC)c(OC)c2)[C@@H]1OC [reserpine, Yohimban-16-carboxylic acid, 11,17-dimethoxy-18-[(3,4,5-trimethoxybenzoyl)oxy]-, methyl ester, (3β,16β,17α,18β,20α)-]",inhibition of / interaction with p-glycoprotein,p-glycoprotein [6],binds to p-glycoprotein and inhibits photo-labeling
same,inhibition of photoaffinity labeling of p-glycoprotein,p-glycoprotein [6]; photolabeling,showed inhibition
same,persistence of effects after discontinuation,[1]; oral,≤ 4 weeks
same,inhibition of digoxin transport,p-glycoprotein [16],inhibited
same,oral absorption,"[5]; human, in vivo",absorbed poorly and erratically
CC[C@@]1(O)C(=O)OCc2c1cc1n(c2=O)Cc2cc3c(CN(C)C)c(O)ccc3nc2-1 [topotecan],activity in clonogenic assay,[17],"exhibited activity in breast, ovarian, non-small cell lung, colorectal, gastric and renal cell carcinomas"
